Test results published in patent US20260048036A1, “CRYSTALLINE FORMS OF A GLUCOSYLCERAMIDE SYNTHASE INHIBITOR AND USES THEREOF” (ACELINK THERAPEUTICS, INC., priority 2022, published 2026).
Values after ≈ are worked out from the molar mass of the structure shown. Values joined by “and” are separate entries in the source; they are usually repeats but may differ in a detail not shown here. Equal entries are not always repeated. Where two headings read alike, the source gives them in different places.

Tests used:
[1] = target: T1, Glucosylceramide synthase (GCS) (Canis lupus familiaris, UniProt A0A8I3MXG6); assay: GCS enzymatic assay with MDCK cell lysate; format: biochemical, canine
T1 construct: The MDCK, K-562, and L6 cell lines all endogenously express GCS enzyme; host or cells: MDCK (canine kidney) cell lysate
T1 sequence (A0A8I3MXG6 1-394): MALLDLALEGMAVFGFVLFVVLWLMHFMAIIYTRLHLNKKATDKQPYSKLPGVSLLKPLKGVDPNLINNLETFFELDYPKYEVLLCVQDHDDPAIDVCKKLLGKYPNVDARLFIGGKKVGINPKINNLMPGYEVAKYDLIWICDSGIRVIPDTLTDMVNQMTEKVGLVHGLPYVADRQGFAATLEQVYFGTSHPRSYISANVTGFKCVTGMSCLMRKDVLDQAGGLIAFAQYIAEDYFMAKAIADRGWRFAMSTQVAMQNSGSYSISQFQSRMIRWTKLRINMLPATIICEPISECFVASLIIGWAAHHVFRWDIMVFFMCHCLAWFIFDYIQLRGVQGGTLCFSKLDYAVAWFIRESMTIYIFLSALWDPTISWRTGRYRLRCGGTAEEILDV
Source text: The reaction product, C6-NBD-glucosylceramide, could then be detected and quantified by LC-MS/MS. The inventors used this method to test and validate the effect of various GCS inhibitors on GCS enzyme activity from different species.
The GCS enzyme activity was detected by using the fluorescent substrate, C6-NBD-ceramide, and monitoring the formation of the fluorescent reaction product, C6-NBD-glucosylceramide. First, the inventors used cell lysate derived from a canine kidney cell line (MDCK, ATCC Cat #CCL-34™) as the source of GCS and tested the inhibitory activity of several control and test compounds.
GCS activity was evaluated using a GCS enzyme assay derived from MDCK or L6 cell lysates.
MDCK or L6 cell lysates were prepared using M-PER in the presence of a protease inhibitor cocktail. Each 100 mm dish (100% confluent) was lysed with 250 μl of M-PER containing protease inhibitors. Protein concentration was determined using Pierce BCA protein assay kit.
The final concentration of DMSO was 0.1% in both compound treated and DMSO only treated samples. Each individual reaction was terminated with 11 volumes of methanol:acetonitrile (6:5; containing 200 ng/ml Tolbutamide as internal control). After sufficient mixing, reactions were centrifuged at 2000 rpm for 10 mins, supernatant was injected into the LC-MS/MS for analysis.
The quantitative analysis of C6-NBD-glucosylceramide was performed on a Shimadzu ultra-fast liquid chromatography coupled with API 4000 mass spectrometer. Analyst 1.5 software packages were used to control the LC-MS/MS system, as well as for data acquisition and processing.
The C6-NBD-glucosylceramide reading was normalized first by dividing the peak area of C6-NBD-glucosylceramide with the peak area of the internal standard, and then the amount was calculated according to the standard curve generated in the same assay run. For the cell based assay results, the amount of C6-NBD-glucosylceramide was also normalized by the protein concentration of the cell samples.
IC50 values were generated from sigmoidal dose-response (variable slope) curves with GraphPad Prism software (GraphPad Software, Inc., San Diego, CA) using the percent inhibition of C6-NBD-glucosylceramide accumulation relative to DMSO control.

physchem = settings: thermodynamic from solid
[2] = Water activity study (Form A + Form C slurry); format: physicochemical; settings: ethanol/water mixtures, a.w. 0.2-1.0, 25° C. or 50° C., XRPD of wet cake
Method: Water activity experiments were conducted at 25° C. or 50° C. to determine critical water activity between anhydrate and hydrate. […] The mixtures were stirred at 25° C. or 50° C. for at least 2 days. The obtained solid part (wet cake) was investigated by XRPD.
The results of water activity study in different solvents at 25° C. and 50° C. are shown in Table 10 and Table 11, respectively. The water activity of a binary solvent system was calculated based on UNIFAC method (UNIQUAC Functional-group Activity Coefficients).

[3] = Hygroscopicity by DVS at 25° C.; format: physicochemical
[4] = 0.1 μM, 60 μg MDCK lysate/reaction, N = 1, N = 2
[5] = 50 mM acetate buffer, pH 4.5, 37 °C, pH 4.5, aqueous buffer
[6] = 50 mM phosphate buffer, pH 6.8, 37 °C, pH 6.8, aqueous buffer

O=C(N[C@H](CN1CCCC1)[C@H](O)c1ccc(OC2CC2)c(Cl)c1)/C(=N/O)c1ccc2cc(Cl)ccc2c1 [Crystalline Form A of Compound 1]
C6-NBD-Ceramide (Normalized to internal control) [1, 4]: 5.04 and 4.88
C6-NBD-Glucosylceramide Concentration [1, 4]: 33.1 nM and 32.5 nM
Inhibition [1, 4]: 96.72%
inhibition at 0.1 µM [1, 4]: 96.7%
IC50 ([1]; MDCK cell lysate as source of GCS, C6-NBD-glucosylceramide by LC-MS/MS): 7.66 nM
solubility at 2 h (physchem; [5]): 230 µg/mL (≈ 424 µM)
solubility at 24 h (physchem; [5]): 210 µg/mL (≈ 387 µM)
solubility at 2 h (physchem; [6]): 10 µg/mL (≈ 18.4 µM)
solubility at 24 h (physchem; [6]): 5 µg/mL (≈ 9.22 µM)
solubility at 24 h (physchem; 0.1N HCl, pH 1.2, 37 °C, pH 1.2, simulated gastric fluid): 970 µg/mL (≈ 1790 µM)
solubility at 2 h (physchem; FaSSIF-V1, 37 °C, pH 6.5, fassif): 30 µg/mL (≈ 55.3 µM)
solubility at 2 h (physchem; FeSSIF-V1, 37 °C, pH 5, fessif): 1970 µg/mL (≈ 3630 µM)
solubility at 24 h (physchem; FeSSIF-V1, 37 °C, pH 5, fessif): > 2000 µg/mL
solubility at 2 h (physchem; SGF, 37 °C, pH 2, simulated gastric fluid): 1160 µg/mL (≈ 2140 µM)
form stability in water activity study [2]: stable in a wide range of water activity
XRPD after DVS test [3]: No form change
hygroscopicity (DVS) [3]: slightly hygroscopic
Desorp. (DVS) ([3]; 0% RH): 0.02%
Sorp. (water uptake by DVS) ([3]; 0% RH): 0.02%
Desorp. (DVS) ([3]; 10% RH): 0.04%
Sorp. (water uptake by DVS) ([3]; 10% RH): 0.03%
Desorp. (DVS) ([3]; 20% RH): 0.05%
Sorp. (water uptake by DVS) ([3]; 20% RH): 0.04%
Desorp. (DVS) ([3]; 30% RH): 0.06%
Sorp. (water uptake by DVS) ([3]; 30% RH): 0.05%
Desorp. (DVS) ([3]; 40% RH): 0.09%
Sorp. (water uptake by DVS) ([3]; 40% RH): 0.06%
Sorp. (water uptake by DVS) ([3]; 50% RH): 0.09%
Sorp. (water uptake by DVS) ([3]; 60% RH): 0.12%
Sorp. (water uptake by DVS) ([3]; 70% RH): 0.14%
Sorp. (water uptake by DVS) ([3]; 80% RH): 0.22%
Sorp. (water uptake by DVS) ([3]; 90% RH): 0.39%
water uptake increased from 40% RH to 90% RH ([3]; DVS): about 0.33%
XRPD after DVS test ([3]; listed as Free form Crystalline Form A of Compound 1): No form change
XRPD after DVS test ([3]; listed as free form Crystalline Form A of Compound 1): no form change
